In a melting point compilation (Tetko et al.; mined from patent text by program, amines drawn as free bases though some values may be those of a salt) one finds melting point data, which are given here for 35 compounds.

As usually defined, the melting point is the temperature, or range, at which the solid turns liquid. Compound `Cc1cc(O)c(SCc2ccc(Cl)cc2)c(=O)o1` showed a melting point of 139 to 141 °C.

Compound `CC(C)C[C@@H](NC(=O)OC(C)(C)C)C(=O)N[C@H](C(=O)OCc1ccccc1)C(C)C` returned a melting point of 82 to 83 °C.

For `CCc1cc(=O)c2cc(CCO)ccc2o1`, the melting point lay within 75 to 76 °C.

As to `O=C(NCC1(O)CCCCCC1)c1cc(-c2ncc(Cl)cc2C(=O)O)ccc1Cl`, the melting point is 201 to 204 °C.

The compound `CC(=O)OC1OCC[C@@H]1NC(=O)[C@@H](N)CC(C)C` (stereo not given in full) displayed a melting point of 75 to 80 °C.

Compound `Cc1cn(C(C)(C)C(=O)N(C)C)nc1-c1ccccc1` returned a melting point of 107 to 109 °C.

The compound `CCCC(=O)C1C(=O)CC(c2ccc(C)cc2)CC1=O` (stereo not given) gave a melting point of 76 to 78 °C.

In turn, `CCOCCn1cc2c(C3C(=O)Nc4ccc(Br)cc43)nc(Cl)nc2n1` (stereo not given) had a melting point of 260 to 263 °C.

In turn, `COC(=O)/C=C/COc1cc(-n2ncc(C(F)(F)F)c(C)c2=O)c(F)cc1Cl` had a melting point of 153 °C.

Compound `O=C(NN1CCN(CCc2c[nH]c3ccccc23)CC1)c1ccccc1` showed a melting point of 227 to 229 °C.

`CCCc1cc(Cl)c(OC(=S)N(C)C)c(C(C)=O)c1OC(C)=O` came in with a melting point of 86 to 88 °C.

Compound `Clc1cc(CC(Cl)(Cl)Cl)cnc1Cl` displayed a melting point of 98 to 99 °C.

`CCC(C)N1CN(C)C(=O)N(c2nc3c(s2)C(=O)CC(C)(C)C3)C1` (stereo not given): the melting point was in the range of 126 to 127 °C.

In turn, `Cn1nc(-c2ccccc2)c(N=O)c1N` came in with a melting point of 230 to 231 °C.

As to `O=C1c2cccc3c(Cl)ccc(c23)C(=O)N1CCN1CCC(c2noc3cc(F)ccc23)CC1`, the melting point lay within 207 to 209 °C.

`COCCNC(=O)c1cccc(-c2cccc3cc(Cc4cccc(C(F)(F)F)c4)sc23)c1F` registered a melting point of 94 to 95 °C.

Take `COc1cc(OC)nc(C2(Cl)OC(=O)c3ncccc32)n1` (stereo not given): the melting point was 146 to 148 °C.

In turn, `CCc1nc2c(N)nc3ccccc3c2n1CCCS(C)(=O)=O` came in with a melting point above 250 °C.

Compound `O=C(OCC(F)(F)F)c1ncn2c1CN=C(c1ccccc1)c1cc(Br)ccc1-2` showed a melting point of 202 to 204 °C.

On to `CN1CCN(CCCNc2sc(-c3cc[nH]n3)c3c2C(=O)CC(C)(C)C3)CC1`, for which the melting point was in the range of 160 to 163 °C.

In turn, `Cc1cc2c(-c3cccc(Cl)c3)nc(Cl)nc2s1` came in with a melting point of 118 to 120 °C.

Consider `CC[C@H](c1ccc(C(F)(F)F)cc1)N(Cc1ccc(C(=O)O)cc1)S(=O)(=O)c1ccc(Cl)cc1`, for which the melting point is 105 to 107 °C.

For the compound `CC1(C)CC(=O)C2=C(C1)NC(c1cccnc1)=NC2c1ccc(F)cc1Cl` (stereo not given), the melting point lay in the range of 186 to 187 °C.

In turn, `COc1ccc(OC(C(=O)N(C)C)C2(O)CCCCC2)cc1` (stereo not given) had a melting point of 98 to 99 °C.

The compound `O=[N+]([O-])c1ccc(CCN2CCN(c3cc(Cl)nnc3Cl)CC2)c([N+](=O)[O-])c1` yielded a melting point of 145 to 146 °C.

Take `Cn1c(C(=O)NC(CF)Cc2ccccc2)cc2c(O)cccc21` (stereo not given): the melting point was 161 to 162 °C.

Turning to `CS(=O)(=O)Nc1cnc([N+](=O)[O-])cn1`, the melting point is 204 to 207 °C.

With `COC[C@H](Cc1ccccc1)NC(=O)[C@@H](CC(=O)OCc1ccccc1)NC(=O)OC(C)(C)C`, the melting point fell in the range of 60 to 63 °C.

With `COc1cc(-c2snnc2C)cc2oc(=O)c(C)c(C)c12`, the melting point was in the range of 204 to 206 °C.

Consider `NS(=O)(=O)c1ccc(CCN2C(=O)c3ccccc3C2c2ccccc2)cc1` (stereo not given), for which the melting point came out at 218 °C.

As to `CCCCC1(N(C)C)CCC(c2[nH]c3ccccc3c2Cc2ccccc2)CC1` (stereo not given), the melting point is 72 to 78 °C.

`O=C(Cc1ccc(Cl)cc1)NCc1cccc2c1C(=O)N(C1CCC(=O)NC1=O)C2=O` (stereo not given) registered a melting point of 243 to 245 °C.

For `O=C1CCCc2nc3sccc3c(NCc3ccccc3)c21`, the melting point is 159 to 160 °C.

Take `CC(C)(C)c1nc2cc(N3CCCC3)c(N=C=S)cc2s1`: the melting point was in the range of 89 to 90 °C.

Compound `CCOC(=O)C1=C(C)NC(C)=C(C(=O)OCC)C1c1ccc(F)cc1` registered a melting point of 150 to 151 °C.
